Measurements published in US20220218639A1.
“And” between values parts separate entries of the source, which are not always exact repeats. Equal entries are not always repeated.

Columns and labels:
[1] = biological target: T1, plasmin (Homo sapiens, UniProt P00747); assay: S-2251 inhibition assay (Dixon plot), plasmin; assay type: biochemical; set-up: purchased Sigma-Aldrich; settings: for mode of inhibition (plasmin): Dixon plot with S/Vo vs I plot; for Ki: Dixon plot, S-2251 100, 350, 750 μM, enzyme 1.0 μg/mL, PBS pH 7.4, unit inferred; for Pen X-Fold inhibition (Plasmin): Ki of the inhibitor relative to Ki of pentamidine
T1 sequence (P00747 581-810 limits assumed): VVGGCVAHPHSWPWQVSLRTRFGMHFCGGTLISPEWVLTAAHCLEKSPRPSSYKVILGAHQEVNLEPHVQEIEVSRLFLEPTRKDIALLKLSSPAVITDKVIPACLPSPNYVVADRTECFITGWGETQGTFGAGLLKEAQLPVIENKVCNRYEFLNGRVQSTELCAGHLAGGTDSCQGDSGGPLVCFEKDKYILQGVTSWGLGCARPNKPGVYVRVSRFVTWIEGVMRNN
T1 sequence (P00747 97-580 partner limits assumed): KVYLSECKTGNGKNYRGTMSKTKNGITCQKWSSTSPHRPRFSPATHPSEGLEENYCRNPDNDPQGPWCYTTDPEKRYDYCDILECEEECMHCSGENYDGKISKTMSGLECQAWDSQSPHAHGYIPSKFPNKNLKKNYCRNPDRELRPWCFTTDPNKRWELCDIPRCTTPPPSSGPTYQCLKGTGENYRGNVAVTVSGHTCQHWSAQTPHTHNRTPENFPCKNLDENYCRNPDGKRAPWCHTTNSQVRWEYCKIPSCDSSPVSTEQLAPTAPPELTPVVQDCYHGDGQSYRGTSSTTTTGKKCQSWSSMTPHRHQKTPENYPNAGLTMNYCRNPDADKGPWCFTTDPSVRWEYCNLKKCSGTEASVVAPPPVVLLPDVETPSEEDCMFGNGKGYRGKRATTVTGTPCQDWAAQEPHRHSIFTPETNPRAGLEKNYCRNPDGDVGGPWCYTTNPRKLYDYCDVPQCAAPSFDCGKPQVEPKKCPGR

[2] = biological target: T2, δ-plasmin (Homo sapiens, UniProt P00747, DEL181-559); assay: S-2251 inhibition assay (Dixon plot), δ-plasmin; assay type: biochemical; settings: for mode of inhibition (δ-plasmin): Dixon plot with S/Vo vs I plot; for Ki: Dixon plot, S-2251 100, 350, 750 μM, enzyme 1.0 μg/mL, PBS pH 7.4, unit inferred; for Pen X-Fold inhibition (Delta Plasmin): Ki of the inhibitor relative to Ki of pentamidine
T2 construct: made in house; host or cells: E. coli (T7 expression system, pET 24b(+))
T2 sequence (P00747 with tags, fused parts or gaps K528E/G536N/V538P/G539Q/N547D/R549E/L551R/V557I/P558L/Q559E): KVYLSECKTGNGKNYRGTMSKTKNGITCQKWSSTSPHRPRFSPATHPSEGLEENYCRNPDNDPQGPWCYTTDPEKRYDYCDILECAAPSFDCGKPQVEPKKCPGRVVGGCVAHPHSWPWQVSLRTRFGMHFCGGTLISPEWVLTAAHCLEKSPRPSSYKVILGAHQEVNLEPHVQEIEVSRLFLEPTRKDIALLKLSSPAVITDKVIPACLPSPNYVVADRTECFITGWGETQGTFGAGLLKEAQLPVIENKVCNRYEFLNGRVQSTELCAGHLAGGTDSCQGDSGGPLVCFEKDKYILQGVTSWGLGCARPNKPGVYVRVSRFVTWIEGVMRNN

[3] = system: blood clots; assay: Clot digestion assay in serum; settings: 50% serum, 2 hours room temp, background-corrected
Experimental: In this Example, blood clot digestion by nanoparticles prepared using 4-carboxybenzamidine conjugated micelles and delta plasmin was analyzed in both PBS and serum.
Fresh blood was drawn and clotted in glass tubes at 37° C. for 1.5 hours. Clots were then cut, excess liquid was removed via light blotting, and weighed to produce clots of ˜600 mg size. Clots were then transferred to phosphate buffered saline (PBS at pH 7.4) or serum. […] After incubation, the blood clots were again lightly blotted and weighed. Experimental parameters are summarized in Table 3 for the clot digestion assay performed in serum.

[4] = Enzyme kinetics with S-2251 chromogenic substrate (Lineweaver-Burke plot); assay type: biochemical; set-up: Kcat: unit not given here; settings: for Kcat: S-2251 substrate, PBS pH 7.4, unit not given
Experimental: Enzyme Kinetic and Inhibition Assays. All enzymatic assays were conducted in phosphate buffered saline (PBS, pH 7.4) at 25° C. on a Molecular Devices SpectraMax Plus 96 well plate reader. The S-2251 assay took advantage of a shift in absorbance of the substrate upon cleaving that could be monitored at a wavelength of 405 nm to determine enzyme kinetics as well as competitive inhibition Ki values for plasmin and its derivatives. […] Initial velocities were determined by the slope of the first 60 seconds of reaction with the S-2251 substrate. All experiments were carried out in triplicate and data represents means plus or minus standard deviations.
In this Example, the predicted kinetic characteristics of plasmin and delta-plasmin were compared. KM, Vmax and Kcat were determined for both full length plasmin and delta plasmin using a Lineweaver-Burke plot in which the concentration of plasmin was held constant across a range of S-2251 substrate concentrations (0-750 μM). Initial velocities for each data point were determined by the slope of the first 60 seconds of reaction with the S-2251 substrate following absorbance at 405 nm.
The Km and Kcat for the two forms of plasmin were determined utilizing an S2251 chromogenic substrate.

[5] = biological target: T1, plasmin; assay: Fluorescence titration dissociation constant (Kd) assay; assay type: binding; set-up: purchased Sigma-Aldrich; host or cells: human plasma; settings: emission 370 nm, PBS pH 7.4, no S-2251; unit inferred; read-out: Kd by fluorescence titration (PB Fl Ki)
Experimental: Fluorescence Titration Dissociation Constant (Kd) Assay. Plasmin was titrated with increasing concentrations of 4-aminobenzamidine from 0-1000 μM in PBS buffer at pH 7.4. By monitoring the increase in fluorescence emission (excitation 280 nm, emission at 370 nm) from 4-aminobenzamdine associated plasmin, a direct determination of its dissociation constant (Kd) can be made. Fitting the data to a sigmoid the Kd value for 4-aminobenzamidine to sigma plasmin is the concentration of inhibitor at which 50% (or 0.5 or half maximum fluorescent emission is reached) intersects with the fit.
Fluorescent titration assay was carried out as described above for determining the Kd, which is the same as the Ki in the case of competitive inhibition, for the 4-aminobenzamidine derivative to plasmin in the absence of the S-2251 substrate.
p-Aminobenzamidine's fluorescent properties enable the implementation of a fluorescent titration assay to directly determine its binding affinity to plasmin. […] At a constant plasmin concentration, increasing amounts of p-aminobenzamidine were titrated into the sample monitoring the fluorescence emission at 370 nm (FIG. 10A).

Compound	mode of inhibition (plasmin) [1]	Ki [1]	Pen X-Fold inhibition (Plasmin) [1]	mode of inhibition (δ-plasmin) [2]	Ki [2]	Pen X-Fold inhibition (Delta Plasmin) [2]	Kd [5] [µM]	clot digestion [3] [%]	Vmax ([4]; S-2251 0-750 μM, PBS pH 7.4, 25° C.)	Km ([4]; S-2251 0-750 μM, PBS pH 7.4, 25° C., unit inferred) [µM]	Kcat [4]	Kcat ([4]; listed as δ-plasmin)	stronger inhibition than the next best inhibitor (plasmin) ([1]; from Ki values) [fold]	stronger inhibition than the next best inhibitor (delta plasmin) ([2]; from Ki values) [fold]
Delta Plasmin: Recombinant plasmin variant with K2-K5 deleted; kringle 1 linked directly with the catalytic domain (SEQ ID NO:2 zymogen)								7.175	19.5	325 ± 8.43	778.2	778.21±1.51		
N=C(N)c1ccc(OCCCCCOc2ccc(C(=N)N)cc2)cc1 [Pentamidine]	primarily competitive	< 4 µM and 2.2 µM		primarily competitive									> 15	> 15
N=C(N)c1ccccc1 [Benzamidine]	purely competitive			purely competitive										
N=C(N)c1ccc(C(=O)O)cc1 [4-Carboxybenzamidine]	purely competitive	292 µM and 293 µM	134.2	purely competitive	302 ± 19.2 µM	75.8								

The next lines start with results.

mode of inhibition (plasmin) [1]	Ki [1]	Pen X-Fold inhibition (Plasmin) [1]	mode of inhibition (δ-plasmin) [2]	Ki [2]	Pen X-Fold inhibition (Delta Plasmin) [2]	Kd [5] [µM]	Compound	clot digestion [3] [%]	Vmax ([4]; S-2251 0-750 μM, PBS pH 7.4, 25° C.)	Km ([4]; S-2251 0-750 μM, PBS pH 7.4, 25° C., unit inferred) [µM]	Kcat [4]	Kcat ([4]; listed as δ-plasmin)	stronger inhibition than the next best inhibitor (plasmin) ([1]; from Ki values) [fold]	stronger inhibition than the next best inhibitor (delta plasmin) ([2]; from Ki values) [fold]
purely competitive	> 1000 µM and 1070 µM	493.0	purely competitive	> 1000 µM and 1410 µM	353.8		N=C(N)c1ccc(CN)cc1 [4-Aminomethyl Benzamidine]							
purely competitive	51.9 ± 2.38 µM	23.8	purely competitive	60.6 ± 6.72 µM	15.2	53.5 ± 4.42	N=C(N)c1ccc(N)cc1 [4-Aminobenzamidine]							
